Article PMC5698418 (Nature Communications, 2017)
Several values for one entry are separate records, joined by “and”; a condition that tells them apart may be missing. Equal values may be shown once. Where a name gives a salt, the structure may show the parent alone. Read-outs that look alike come from different tables or passages of the source. Non-standard residues stand in square brackets, D forms with d. Residues, ends and D or L forms follow the SMILES beside them. dTrp(2-Me) = Cc1[nH]c2ccccc2c1C[C@@H](N)C(=O)O

Test system: BDNF-induced nuclear Arc expression in primary cortical neurons
Assay: Chemogenomic screen: high-content image-based assay of BDNF-induced nuclear Arc expression (96-well)
Assay type: cell-based, mouse
Procedure: To increase the throughput of our pharmacological screening for modulators of Arc, the above mentioned assay was adapted to cultures of mouse primary cortical neurons in 96-well plates.
All 319 compounds were initially tested at a final concentration of 16.7 µM with three biological replicates.
Screening of compounds in the chemogenomic library was carried out using DIV13 primary forebrain cortical neurons cultured on poly-L-lysine/laminin-coated 96-well plates (Ibidi USA, Madison, WI). Cells were seeded at a density of 30,000 cells per well and treated with the compound library and BDNF according to the experimental design presented in Fig. 3a. After experimental treatment, cells were processed for Arc and acetyl-H3K9 immunocytochemistry according to the protocol described above. Both antigens (Arc and acetyl-H3K9) were imaged using an IN Cell Analyzer 6000 imaging system and a ×40 objective. […] High-throughput quantification of nuclear Arc immunofluorescence signal was performed in a similar fashion than the low-throughput procedure described above but with the exception that acetyl-H3K9 was used as a nuclear mask to guide the automated quantification of nuclear Arc immunofluorescence signal.

[1] = chemogenomic (SMART) screen, BDNF-induced nuclear Arc expression, primary cortical neurons, BDNF control 19.5
[2] = nuclear Arc-positive cells relative to DMSO + BDNF control, negative values = decrease
[3] = BDNF-induced nuclear Arc expression, primary cortical neurons, chemogenomic screen
[4] = nuclear Arc-positive cells relative to DMSO control (BDNF), negative = decrease

Compound | Percentage of cell with nuclear Arc immunostaining above 2σ threshold [1] [%] | Fold-change — Normalized to DMSO control (BDNF) [2] | also measured
NC12CC3CC(CC(C3)C1)C2 [Amantadine] | 32.9 | 1.7 fold | –
CN1CC2c3ccccc3Oc3ccc(Cl)cc3C2C1 (stereo not shown) [Asenapine] | – | – | Percentage of cell with nuclear Arc immunostaining above 2σ threshold [3]: 11.2%
CC(=O)/N=c1/sc(S(N)(=O)=O)nn1C [Methazolamide] | – | – | Percentage of cell with nuclear Arc immunostaining above 2σ threshold [3]: 11.8%
CCN1CCC[C@H]1CNC(=O)c1c(OC)ccc(Br)c1OC [Remoxipride] | 35.4 | 1.8 fold | –
CNC1(C)C2CCC(C2)C1(C)C (stereo not shown) [Mecamylamine] | – | – | Percentage of cell with nuclear Arc immunostaining above 2σ threshold [3]: 11.9%
Clc1cccc(Cl)c1N=C1NCCN1 [Clonidine] | 12.2 | – | –
CN(CCOc1ccc(CC2SC(=O)NC2=O)cc1)c1ccccn1 (stereo not shown) [Rosiglitazone] | 29.8 | 1.5 fold | –
OCCOCCN1CCN(C(c2ccccc2)c2ccc(Cl)cc2)CC1 (stereo not shown) [Hydroxyzine dihydrochloride] | 27.2 | 1.4 fold | –
C[C@H](O)[C@H](O)[C@H]1CNc2nc(N)[nH]c(=O)c2N1 [Sapropterin] | 49.8 | 2.6 fold | –
O=C(O)C(Cc1c[nH]c2ccccc12)N1C(=O)c2ccccc2C1=O (stereo not shown) [RG-108] | – | 1.8 fold and 1.4 fold | Percentage of cell with nuclear Arc immunostaining above 2σ threshold: 35.1% and 27.5%
Cc1ncc(CSSCc2cnc(C)c(O)c2CO)c(CO)c1O [Pyrithioxine] | 21.3 | 1.1 fold | –
CCc1ccc(CCOc2ccc(CC3SC(=O)NC3=O)cc2)nc1 (stereo not shown) [Pioglitazone] | 15.4 | – | –
CCN(CC)CCOCCOC(=O)C1(c2ccccc2)CCCC1 [Carbetapentane] | 17.2 | – | –
LM22A-4 | 14.0 | -1.4 fold | –
COc1ccc2cc3[n+](cc2c1OC)CCc1cc2c(cc1-3)OCO2 [Berberine] | – | – | Percentage of cell with nuclear Arc immunostaining above 2σ threshold [3]: 2.2%
CNC1CC(c2ccc(Cl)c(Cl)c2)c2ccccc21 (stereo not shown) [Indatraline] | – | – | Percentage of cell with nuclear Arc immunostaining above 2σ threshold: 0.0%
C[C@@](Cc1ccc(O)c(O)c1)(NN)C(=O)O [Carbidopa] | 36.1 | 1.9 fold | –
CCOC(=O)c1cncn1[C@H](C)c1ccccc1 [Etomidate] | – | – | Percentage of cell with nuclear Arc immunostaining above 2σ threshold: 13.0%
COC[C@@H](NC(C)=O)C(=O)NCc1ccccc1 [Lacosamide] | – | – | Percentage of cell with nuclear Arc immunostaining above 2σ threshold: 6.7%

Compound | Percentage of cell with nuclear Arc immunostaining above 2σ threshold [1] [%] | Fold-change — Normalized to DMSO control (BDNF) [2] | also measured
CC(=O)[C@H]1CC[C@H]2[C@@H]3CC=C4C[C@@H](O)CC[C@]4(C)[C@H]3CC[C@]12C [Pregnenolone] | 24.4 | 1.2 fold | –
CN1CCC(=C2c3ccccc3CC(=O)c3sccc32)CC1 [Ketotifen] | 12.3 | – | –
O=C(O)CNC(=O)c1c(O)c2ccccc2n(Cc2ccccc2)c1=O [IOX2] | 45.4 | 2.3 fold | –
NS(=O)(=O)Cc1noc2ccccc12 [Zonisamide] | – | – | Percentage of cell with nuclear Arc immunostaining above 2σ threshold [3]: 9.8%
COc1cccc([C@H](O)C2CCN(CCc3ccc(F)cc3)CC2)c1OC [Volinanserin] | – | – | Percentage of cell with nuclear Arc immunostaining above 2σ threshold [3]: 9.0%
O=C(c1ccc2nccnc2c1)N1CCCCC1 [Ampalex] | 40.8 | 2.1 fold | –
CC[C@@H](C(N)=O)N1CCCC1=O [Levetiracetam] | – | – | Percentage of cell with nuclear Arc immunostaining above 2σ threshold [3]: 7.9%
CC(C)CNC(=O)/C=C/C=C/c1ccc2c(c1)OCO2 [Piperlonguminine] | 23.0 | 1.2 fold | –
Clc1ccc(C23CNCC2C3)cc1Cl (stereo not shown) [DOV-216,303] | – | – | Percentage of cell with nuclear Arc immunostaining above 2σ threshold: 6.5%; Fold-change — Normalized to DMSO control (BDNF) [4]: -3.0 fold
OC(CCN1CCCC1)(c1ccccc1)C1CCCCC1 (stereo not shown) [Procyclidine hydrochloride] | 19.3 | – | –
C[N+](C)(C)C[C@H](O)CC(=O)[O-] [Levocarnitine] | – | – | Percentage of cell with nuclear Arc immunostaining above 2σ threshold [3]: 10.1%
Cc1nccn1CC1CCc2c(c3ccccc3n2C)C1=O (stereo not shown) [Ondansetron] | 37.6 | 1.9 fold | –
O=C(CCCN1CCC(n2c(O)nc3ccccc32)CC1)c1ccc(F)cc1 [Benperidol] | 18.9 | – | –
C=C[C@@]1(C)CC(=O)[C@]2(O)[C@@]3(C)[C@@H](O)CCC(C)(C)[C@@H]3[C@H](O)[C@H](OC(C)=O)[C@@]2(C)O1 [Forskolin] | 29.3 | 1.5 fold | –
CCC1(C)CC(=O)NC1=O (stereo not shown) [Ethosuximide] | 21.8 | 1.1 fold | –
O=C(/C=C/C=C/c1ccc2c(c1)OCO2)N1CCCCC1 [Piperine] | 18.5 | – | –
CCSc1ccc2c(c1)N(CCCN1CCN(C)CC1)c1ccccc1S2 [Thiethylperazine] | – | – | Percentage of cell with nuclear Arc immunostaining above 2σ threshold [3]: 0.529%
Cc1[nH]c2ccccc2c1C[C@@H](NC(=O)[C@@H](N)Cc1cnc[nH]1)C(=O)N[C@@H](C)C(=O)N[C@@H](Cc1c[nH]c2ccccc12)C(=O)N[C@H](Cc1ccccc1)C(=O)N[C@@H](CCCCN)C(N)=O [Hexarelin] (H-H[dTrp(2-Me)]AW[dF]K-NH2) | 17.9 | -1.1 fold | –
CN(C)CCCC1(c2ccc(F)cc2)OCc2cc(C#N)ccc21 (stereo not shown) [Citalopram] | – | – | Percentage of cell with nuclear Arc immunostaining above 2σ threshold [3]: 6.1%

Compound | Percentage of cell with nuclear Arc immunostaining above 2σ threshold [1] [%] | Fold-change — Normalized to DMSO control (BDNF) [2] | also measured
CN1CCC[C@@H]1Cc1c[nH]c2ccc(CCS(=O)(=O)c3ccccc3)cc12 [Eletriptan] | – | – | Percentage of cell with nuclear Arc immunostaining above 2σ threshold [3]: 3.7%
COc1ccc2[nH]cc(CCNC(C)=O)c2c1 [Melatonin] | 25.2 | 1.3 fold | –
COc1ccc(C2CNC(=O)C2)cc1OC1CCCC1 (stereo not shown) [Rolipram] | 21.4 | 1.1 fold | –
Cl.O=C(O)C1=CCCN(CCON=C(c2ccccc2)c2ccccc2)C1 [NNC 711 hydrochloride] | – | 1.1 fold | Percentage of cell with nuclear Arc immunostaining above 2σ threshold: 21.4%
CN1C(=O)CC[C@H]1c1cccnc1 [Cotinine] | 30.8 | 1.6 fold | –
COc1cccc(C2(O)CCCCC2CN(C)C)c1 (stereo not shown) [Tramadol] | – | – | Percentage of cell with nuclear Arc immunostaining above 2σ threshold: 7.5%
O=C1c2cc3c(cc2OC2CCCN12)OCCO3 (stereo not shown) [CX-614] | – | -1.5 fold | Percentage of cell with nuclear Arc immunostaining above 2σ threshold: 13.1%
CN1[C@H]2C[C@H](OC(=O)[C@H](CO)c3ccccc3)C[C@@H]1[C@@H](O)C2 [Anisodamine] | – | 1.3 fold | Percentage of cell with nuclear Arc immunostaining above 2σ threshold: 25.5%
O=c1c(-c2ccc(O)cc2)coc2cc(O)cc(O)c12 [Genistein] | 31.7 | 1.6 fold | –
Cc1nccc2c1[nH]c1ccccc12 [Harmane] | – | 2.0 fold | Percentage of cell with nuclear Arc immunostaining above 2σ threshold: 38.8%
CC(C)c1c(CN(C)C(C)Cc2ccccc2)n(C)n(-c2ccccc2)c1=O (stereo not shown) [Famprofazone] | – | – | Percentage of cell with nuclear Arc immunostaining above 2σ threshold: 18.1%
CCOC(=O)C1=C[C@]2(CC)CCCN3CCc4c(n1c1ccccc41)[C@@H]32 [Vinpocetine] | 12.5 | – | –
Cl.c1ccc2c(c1)OCC(C1=NCCN1)O2 (stereo not shown) [Idazoxan hydrochloride, RX 781094] | 24.1 | 1.2 fold | –
N[C@@H]1C[C@H]1c1ccccc1 [Tranylcypromine hydrochloride] | 26.6 | 1.4 fold | –
CCOC(=O)[C@H](CCc1ccccc1)N[C@@H](C)C(=O)N1CCC[C@H]1C(=O)O [Enalapril] | 22.4 | 1.1 fold | –
CC[C@H](CO)Nc1nc(NCc2ccccc2)c2ncn(C(C)C)c2n1 [Roscovitine] | – | – | Fold-change — Normalized to DMSO control (BDNF): 1.3 fold; Percentage of cell with nuclear Arc immunostaining above 2σ threshold: 24.9%
Cc1nc2n(c(=O)c1CCN1CCC(c3noc4cc(F)ccc34)CC1)CCCC2 [Risperidone] | – | – | Percentage of cell with nuclear Arc immunostaining above 2σ threshold: 6.3%
COc1cc(/C=C/C(=O)C(=Cc2ccc(F)c(F)c2)C(=O)/C=C/c2ccc(O)c(OC)c2)ccc1O [3,4-Difluorobenzocurcumin] | – | – | Percentage of cell with nuclear Arc immunostaining above 2σ threshold [3]: 1.4%; Fold-change — Normalized to DMSO control (BDNF) [4]: -14.1 fold
CN1CCN2c3ncccc3Cc3ccccc3C2C1 (stereo not shown) [Mirtazapine] | – | – | Percentage of cell with nuclear Arc immunostaining above 2σ threshold [3]: 4.5%
